Measurements published in article PMC4810358, “Applicability of the Rayleigh equation for enantioselective metabolism of chiral xenobiotics by microsomes, hepatocytes and in-vivo retention in rabbit tissues” (Scientific Reports, 2016).
“And” between values parts separate entries of the source, which are not always exact repeats. Identical values can stand only once. Like-named read-outs stand apart in the source and are kept apart here. Values belong to the compound of their own block, whether it stands above or below them.

Assays:
[1] = de-methylation (enantioselective degradation) by human liver microsomes; conditions: HLM; for Overall first order kinetic constant, kc: racemate, 37 °C, 0–120 min; for Enantiomeric enrichment factor, εER: mean ± 95% confidence interval of Rayleigh slope, n = 3, NE = no enrichment
Method: (§1) The reactions were initiated by the addition of 120 μl NADPH-regenerating system (100 μL of solution A and 20 μL of solution B) that were added after a 3-min pre-incubation of the incubation mixtures containing 10 μl of substrate (1 g/L), 50 μl human/rat hepatic microsomes (20 mg protein/ml) and […] sodium phosphate buffer, 0.1 M pH 7.4 final volume was 500 μl. The reactions were stopped at time intervals by cooling on ice and addition of 100 μl acetonitrile followed by the addition of 20 μL internal standards stock solution (0.1 g/L). After termination of the reaction 200 microliter sodium carbonate solution (1 M, pH 12) was added and samples were then vigorously shaken for 1 min and consequently extracted into 6 ml n-hexane/acetonitrile (98/2 vol/vol) using an Intelli mixer on 50 rpm for 5 min. after centrifugation for 10 min (6,000 rpm) the upper organic layer was collected and the procedure was repeated. The samples were eventually evaporated till dry under a gentle stream of nitrogen. The residue was dissolved in 200 microliter methanol and analyzed by HPLC-MS. These degradation studies were done in duplicates.
(§2) Control assays were run under the same conditions, with 200 μL insect control supersomes (5 mg protein/ml) used as a negative control, i.e containing no CYP450 but the same protein content (cytochrome b5), while 10 μl of Verapamil (1 g/L) and 50 μl human microsomes (20 mg protein/ml) was incubated for 30 min as a positive control.
(§3) The chiral separation method was based on methodology of Begnall et al.[62]. […] For all separations the column and autosampler were maintained at 25 °C, with an optimal chromatographic run time of 24 minutes, the injection volume was 10 μL. QTOF mass spectrometer equipped with an electrospray ionization source (Agilent G3251A Dual ESI) was used for chiral drug identification and quantification. Analysis was performed in positive mode with a capillary voltage potential of 4000 V; the nebulizer gas pressure was set to 40 psi and drying gas flow was 10 L/min, with a drying gas temperature of 300 °C. The fragmentor voltage was set at 140 V, and skimmer voltage was 65 V. Scan range was 50–1000 m/z, the other MS parameters remained at auto-tune conditions.
(§4) The enantiomeric ratios were expressed as the ER – the peak area of one enantiomer (the more abundant) divided by that of the other enantiomer.

[2] = de-methylation (enantioselective degradation) by Sprague Dawley rat liver microsomes; type: in vitro ADME; conditions: RLM-SD; for Overall first order kinetic constant, kc: racemate, 37 °C, 0–120 min; for Enantiomeric enrichment factor, εER: mean ± 95% confidence interval of Rayleigh slope, n = 3, NE = no enrichment
Method: as §1, §2, §3, §4

[3] = de-methylation (enantioselective degradation) by Wistar Han rat liver microsomes; type: in vitro ADME; conditions: RLM-W; for Overall first order kinetic constant, kc: racemate, 37 °C, 0–120 min; for Enantiomeric enrichment factor, εER: mean ± 95% confidence interval of Rayleigh slope, n = 3, NE = no enrichment
Method: as §1, §2, §3, §4

[4] = de-methylation (enantioselective degradation) by Lewis rat liver microsomes; type: in vitro ADME; conditions: RLM-L; for Overall first order kinetic constant, kc: racemate, 37 °C, 0–120 min; for Enantiomeric enrichment factor, εER: mean ± 95% confidence interval of Rayleigh slope, n = 3, NE = no enrichment
Method: as §1, §2, §3, §4

[5] = stereoselective degradation of metalaxyl in hepatic microsomes (Zhang et al.); type: in vitro ADME, rat and rabbit; conditions: for individual degradation constant: calculated from concentration-time data of Fig. 3a in ref 22, R^2 = 0.98
Method: (§5) In addition to the microsome studies, the Rayleigh equation was fitted to reported studies on biodegradation of chiral compounds using liver microsomes and hepatocytes for which there was sufficient data available. We focused on studies published on years 2011–2015 that reported on first order kinetics and/or provided concentration - time profiles of the individual enantiomers after incubation of the racemate with the metabolizer, i.e. systems analyzed by approach II in the introduction.

[6] = hepatic microsomes; cited from earlier work
[7] = set-up: method as in PMID 25820472; conditions: rat liver microsomes; cited from earlier work
[8] = cited from earlier work; for first order half-life: hepatocytes from male Sprague-Dawley rats; for individual first order rate constant: myclobutanil, hepatocytes from male Sprague–Dawley rats
[9] = enantioselective metabolism of diclofop-methyl in fish liver microsomes (Ma et al.); type: in vitro ADME, loach (Misgurnus anguillicaudatus); conditions: reconstructed from data of Fig. 3A in ref 50; R^2 = 0.94
Method: as §5

[10] = loach liver microsomes; cited from earlier work
[11] = set-up: method as in PMID 24027055; conditions: male Sprague–Dawley rat liver microsomes; cited from earlier work
[12] = de-methylation by liver microsomes, statements pooled over all microsome sources; type: in vitro ADME, human and rat; conditions: through all the incubations with the various microsomes
Method: as §1, with “The samples were eventually evaporated till dry under a gentle stream of nitrogen.” left out, “These degradation studies were done in duplicates.” left out
The chiral separation method was based on methodology of Begnall et al.[62]. […] QTOF mass spectrometer equipped with an electrospray ionization source (Agilent G3251A Dual ESI) was used for chiral drug identification and quantification. […]
as §4

[13] = enantioselective metabolism in rat hepatocytes (reported studies); type: in vitro ADME
Method: as §5
Wang et al.[24] studied the enantioselective metabolism of the fungicide hexaconazole as well, they used male Sprague–Dawley rat hepatocytes. […] In a second test case, Wang et al.[52] studied the degradation of the fungicide myclobutanil in hepatocytes from male Sprague–Dawley rats.

[14] = metabolism of hexaconazole in male Sprague–Dawley rat liver microsomes (Shen et al.); type: in vitro ADME; conditions: reconstructed from data of Fig. 3A in ref 20; R^2 = 0.99
Method: as §5

[15] = in vivo enantioselective behaviour in rabbit plasma and tissues after intravenous racemate (Sun et al.)
Text: For example, Sun et al.[26] have reviewed the enantioselective behavior of the fungicide myclobutanil enantiomers in variant rabbit tissues following intravenous administration of the racemic fungicide. Using the plasma concentration-time curves of the two enantiomers (presented in Fig. 1A in ref. [26]) we obtained the enantiomeric enrichment factor of −28 ± 5 (R^2 = 0.97). Analysis of the distribution of myclobutanil in various tissues, presented in Fig. 3 in ref. [26], obtained the enantiomeric enrichment factors of −33 ± 16 (R^2 = 0.92) for the liver, −20 ± 6 (R^2 = 0.97) for the brain, −32 ± 16 (R^2 = 0.89) for the kidney and −21 ± 6 (R^2 = 0.97) for the muscle. […] This quantitative ranking is obscured by the large number of time trace data points in the original presentation. Another example can be presented by the study of Kong et al.[25] reporting on the stereoselective metabolism of the alpha blocker doxazosin (DOX) in vivo in male Sprague–Dawley rats.

[16] = enantioselective degradation of paclobutrazol in rat liver microsomes (Wu et al.); type: in vitro ADME; conditions: reconstructed from data of Fig. 3A in ref 19; R^2 0.97
Method: as §5

SMILES: CNCCC(Oc1ccc(C(F)(F)F)cc1)c1ccccc1 (racemic) [FLX, (R,S)-fluoxetine]
- Overall first order kinetic constant, kc [1]: 0.01 min⁻¹
- Overall first order kinetic constant, kc [2]: 0.02 min⁻¹
- Overall first order kinetic constant, kc [3]: 0.06 min⁻¹
- Overall first order kinetic constant, kc [4]: 0.04 min⁻¹

SMILES: COCC(=O)N(c1c(C)cccc1C)[C@H](C)C(=O)OC [(−)-R-MX]
- individual degradation constant [5]: 0.0415 min⁻¹
- half-life [6]: 15.58 min

SMILES: CC(C)(C)[C@@H](O)[C@@H](Cc1ccc(Cl)cc1)n1cncn1 [(2R, 3R)-paclobutraz]
- individual first order degradation rate constant [7]: 0.0373 min⁻¹

SMILES: CCOC1Oc2ccc(OS(C)(=O)=O)cc2C1(C)C (single isomer, unassigned; (+)) [(+) ETO]
- first order half-life ([8]; ethofumesate): 120 min

SMILES: COC(=O)C(C)Oc1ccc(Oc2ccc(Cl)cc2Cl)cc1 (stereo not shown) [diclofop-methyl]
- enantiomeric enrichment factor [9]: −142 ± 40%

SMILES: COC(=O)[C@@H](C)Oc1ccc(Oc2ccc(Cl)cc2Cl)cc1 [(R)-DM]
- individual first order degradation rate constant [10]: 0.0346 min⁻¹

SMILES: CCCCC(C#N)(Cn1cncn1)c1ccc(Cl)cc1 (single isomer, unassigned; (+)) [(+)-myclobutanil]
- individual first order rate constant [8]: 0.065 h⁻¹

SMILES: COC(=O)[C@H](C)Oc1ccc(Oc2ccc(Cl)cc2Cl)cc1 [(S)-DM]
- individual first order degradation rate constant [10]: 0.1904 min⁻¹

SMILES: CC(C)(C)[C@H](O)[C@H](Cc1ccc(Cl)cc1)n1cncn1 [(2S, 3S)-paclobutrazol]
- individual first order degradation rate constant [7]: 0.0634 min⁻¹

- Overall first order kinetic constant, kc [1]: 0.007 min⁻¹
- Enantiomeric enrichment factor, εER [1]: −36 ± 3 (0.95) %
- Overall first order kinetic constant, kc [2]: 0.02 min⁻¹
- Enantiomeric enrichment factor, εER [2]: −10 ± 4 (0.92) %
- Overall first order kinetic constant, kc [3]: 0.07 min⁻¹
- Enantiomeric enrichment factor, εER [3]: −53 ± 3 (0.95) %
- Overall first order kinetic constant, kc [4]: 0.007 min⁻¹
SMILES: CN(C)CCCC1(c2ccc(F)cc2)OCc2cc(C#N)ccc21 (racemic) [CTM, (R,S)-citalopram]

SMILES: CCOC1Oc2ccc(OS(C)(=O)=O)cc2C1(C)C (single isomer, unassigned; (-)) [(−) ETO]
- first order half-life ([8]; ethofumesate): 246 min

- Overall first order kinetic constant, kc [1]: 0.004 min⁻¹
- Enantiomeric enrichment factor, εER [1]: −237 ± 29% and −237 ± 29 (0.92) %
- Overall first order kinetic constant, kc [2]: 0.02 min⁻¹
- Enantiomeric enrichment factor, εER [2]: −11 ± 6 (0.92) %
- Overall first order kinetic constant, kc [3]: 0.008 min⁻¹
- Enantiomeric enrichment factor, εER [3]: −38 ± 5 (0.92) %
- Overall first order kinetic constant, kc [4]: 0.03 min⁻¹
- Enantiomeric enrichment factor, εER [4]: −53 ± 12 (0.98) %
SMILES: CN1CCN2c3ccccc3Cc3ccccc3C2C1 (racemic) [MNS, (R,S)-mianserin]

SMILES: CCCCC(O)(Cn1cncn1)c1ccc(Cl)cc1Cl (single isomer, unassigned; (-)) [(−)-hexaconazole]
- individual first order degradation rate constant [11]: 0.06804 min⁻¹

- Overall first order kinetic constant, kc [1]: 0.025 min⁻¹
- Enantiomeric enrichment factor, εER [1]: −7 ± 1 (0.98) %
- Overall first order kinetic constant, kc [2]: 0.009 min⁻¹
- Enantiomeric enrichment factor, εER [2]: −9 ± 1 (0.96) %
- Overall first order kinetic constant, kc [3]: 0.02 min⁻¹
- Enantiomeric enrichment factor, εER [3]: −4 ± 1% and −4 ± 1 (0.91) %
- Overall first order kinetic constant, kc [4]: 0.007 min⁻¹
- Enantiomeric enrichment factor, εER [4]: −59 ± 2 (0.94) %
SMILES: CN(C)CC(c1ccc(O)cc1)C1(O)CCCCC1 (racemic) [O-DMV, (R,S)-O-desmethylvanlafaxine]

- Overall first order kinetic constant, kc [1]: 0.01 min⁻¹
- Overall first order kinetic constant, kc [2]: 0.03 min⁻¹
- Overall first order kinetic constant, kc [3]: 0.05 min⁻¹
- Overall first order kinetic constant, kc [4]: 0.009 min⁻¹
- enantiomeric ratio, ER [12]: 1.1 ± 0.08
SMILES: COc1ccc(C(CN(C)C)C2(O)CCCCC2)cc1 (racemic) [VNF, (R,S)-venlafaxine]

SMILES: CCCCCCC(C)OC(=O)COc1nc(F)c(Cl)c(N)c1Cl (single isomer, unassigned; (+)) [(+) FPMH]
- first order half-life ([8]; fluroxypyr methylheptyl ester): 5.1 min

SMILES: COCC(=O)N(c1c(C)cccc1C)C(C)C(=O)OC (stereo not shown) [metalaxyl]
- Enantiomeric enrichment factor, εER ([5]; reconstructed from data of Fig. 3a in ref 22, R^2 = 0.94): −78 ± 14%

SMILES: CCOC1Oc2ccc(OS(C)(=O)=O)cc2C1(C)C (stereo not shown) [ETO, ethofumesate]
- enantiomeric enrichment factor ([13]; ETO, reconstructed from concentration–time curves of Fig. 2 in ref 53, R^2 = 0.96): −75 ± 11%

SMILES: CCCCC(O)(Cn1cncn1)c1ccc(Cl)cc1Cl (single isomer, unassigned; (+)) [(+)-hexaconazole]
- individual first order degradation rate constant [11]: 0.09324 min⁻¹

SMILES: CCCCC(O)(Cn1cncn1)c1ccc(Cl)cc1Cl (stereo not shown) [hexaconazole]
- enantiomeric enrichment factor [14]: −37 ± 2%
- enantiomeric enrichment factor ([13]; hexaconazole, reconstructed from Fig. 3a in ref 24, R^2 = 0.99): −184 ± 6%

SMILES: CCCCC(C#N)(Cn1cncn1)c1ccc(Cl)cc1 (single isomer, unassigned; (-)) [(−)-myclobutanil]
- individual first order rate constant [8]: 0.046 h⁻¹

SMILES: CCCCCCC(C)OC(=O)COc1nc(F)c(Cl)c(N)c1Cl (single isomer, unassigned; (-)) [(−) FPMH]
- first order half-life ([8]; fluroxypyr methylheptyl ester): 13.1 min

SMILES: COCC(=O)N(c1c(C)cccc1C)[C@@H](C)C(=O)OC [(+)-S-MX]
- individual degradation constant [5]: 0.0864 min⁻¹
- half-life [6]: 7.71 min

SMILES: CCCCC(C#N)(Cn1cncn1)c1ccc(Cl)cc1 (stereo not shown) [myclobutanil]
- enantiomeric enrichment factor ([13]; myclobutanil, reconstructed from Fig. 3a in ref 52, R^2 = 0.97): −24 ± 2%
- enantiomeric enrichment factor ([15]; rabbit brain, from Fig. 3 in ref 26, R^2 = 0.97): −20 ± 6
- enantiomeric enrichment factor ([15]; rabbit kidney, from Fig. 3 in ref 26, R^2 = 0.89): −32 ± 16
- enantiomeric enrichment factor ([15]; rabbit liver, from Fig. 3 in ref 26, R^2 = 0.92): −33 ± 16
- enantiomeric enrichment factor ([15]; rabbit muscle, from Fig. 3 in ref 26, R^2 = 0.97): −21 ± 6
- enantiomeric enrichment factor ([15]; rabbit plasma, intravenous racemate, from Fig. 1A in ref 26, R^2 = 0.97): −28 ± 5
- decay kinetics / adherence to the Rayleigh law ([15]; rabbits' hearts and fats, data of ref 26): does not follow linear kinetics

SMILES: CC(C)(C)[C@@H](O)[C@@H](Cc1ccc(Cl)cc1)n1cncn1 (racemic) [(2RS, 3RS)-paclobutrazol]
- enantiomeric enrichment factor [16]: −66 ± 14%
